From US20260347364A1, “PYRAZOLO[4,3-F]QUINAZOLINE DERIVATIVES AS MODULATORS OF G12D MUTANT KRAS USEFUL FOR THE TREATMENT OF CANCER” (JAZZ PHARMACEUTICALS IRELAND LTD., priority 2023, published 2026)

Key:
KRAS G12D = biological target: T1, KRAS G12D (Homo sapiens, UniProt P01116, G12D); experiment: HTRF nucleotide exchange assay, KRAS G12D; format: biochemical; settings: HTRF nucleotide exchange assay (NEA), class symbols
T1 construct: aa1-188 KRAS WT, HRAS WT, NRAS WT, or KRAS containing the G12D
T1 sequence (P01116 1-188 isoform P01116-2 G12D): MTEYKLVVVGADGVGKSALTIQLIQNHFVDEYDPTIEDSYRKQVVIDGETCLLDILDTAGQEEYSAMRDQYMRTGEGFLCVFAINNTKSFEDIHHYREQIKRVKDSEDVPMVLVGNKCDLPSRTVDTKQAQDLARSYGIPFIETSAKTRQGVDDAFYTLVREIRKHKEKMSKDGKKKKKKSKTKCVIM

KRAS WT = biological target: T2, KRAS WT (Homo sapiens, UniProt P01116); experiment: HTRF nucleotide exchange assay, KRAS WT; format: biochemical; settings: HTRF nucleotide exchange assay (NEA), class symbols
T2 construct: aa1-188 KRAS WT
T2 sequence (P01116 1-188 isoform P01116-2): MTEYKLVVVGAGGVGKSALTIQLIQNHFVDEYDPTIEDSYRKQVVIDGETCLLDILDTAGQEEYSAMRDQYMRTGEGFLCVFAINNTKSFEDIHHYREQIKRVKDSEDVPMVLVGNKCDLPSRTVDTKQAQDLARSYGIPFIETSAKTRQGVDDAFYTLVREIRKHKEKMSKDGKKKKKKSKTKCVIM

| IC50 (KRAS G12D) [nM] | IC50 (KRAS WT) [nM] | SMILES |
| --- | --- | --- |
| ≤ 10 | ≤ 10 | CCc1c(F)ccc2cc(O)cc(-c3c(F)c4nc(OC[C@@]56CCCN5C[C@H](F)C6)nc(N5CCOCC(O)C5)c4c4cn(C)nc34)c12 (stereo partly drawn) [Example 223, 4-[4-(8-ethyl-7-fluoro-3-hydroxy-1-naphthyl)-5-fluoro-7-[[(2R,8S)-2-fluoro-1,2,3,5,6,7-hexahydropyrrolizin-8-yl]methoxy]-2-methyl-pyrazolo[4,3-f]quinazolin-9-yl]-1,4-oxazepan-6-ol] |
| ≤ 10 | ≤ 10 | CCc1c(F)ccc2cc(O)cc(-c3c(F)c4nc(OC[C@@]56CCCN5C[C@H](F)C6)nc(N5CCCC(C#N)C5)c4c4cn(C)nc34)c12 (stereo partly drawn) [Example 176, 1-[4-(8-ethyl-7-fluoro-3-hydroxy-1-naphthyl)-5-fluoro-2-methyl-7-[[(2R,8S)-2-fluoro-1,2,3,5,6,7-hexahydropyrrolizin-8-yl]methoxy]pyrazolo[4,3-f]quinazolin-9-yl]piperidine-3-carbonitrile] |
| ≤ 10 | ≤ 10 | CCc1c(F)ccc2cc(O)cc(-c3c(C)c4nc(OC[C@@]56CCCN5C[C@H](F)C6)nc(N5CCCn6nc(COC)cc6C5)c4c4cn(C)nc34)c12 [Example 243] |
| ≤ 10 | ≤ 10 | CCc1c(F)ccc2cc(O)cc(-c3cc4nc(OC[C@@]56CCCN5C[C@H](F)C6)nc(N5CCOCC(C)C5)c4c4cn(C)nc34)c12 (stereo partly drawn) [Example 121, 5-ethyl-6-fluoro-4-[2-methyl-9-(6-methyl-1,4-oxazepan-4-yl)-7-[[(2R,8S)-2-fluoro-1,2,3,5,6,7-hexahydropyrrolizin-8-yl]methoxy]pyrazolo[4,3-f]quinazolin-4-yl]naphthalen-2-ol] |
| ≤ 10 | ≤ 10 | CCc1c(F)ccc2c(F)c(O)cc(-c3cc4nc(OC[C@@]56CCCN5C[C@H](F)C6)nc(N5CCCn6nc(C(=O)N(C)C)cc6C5)c4c4cn(C)nc34)c12 [Example 82, 5-[4-(8-ethyl-4,7-difluoro-3-hydroxy-1-naphthyl)-2-methyl-7-[[(2R,8S)-2-fluoro-1,2,3,5,6,7-hexahydropyrrolizin-8-yl]methoxy]pyrazolo[4,3-f]quinazolin-9-yl]-N,N-dimethyl-4,6,7,8-tetrahydropyrazolo[1,5-a][1,4]diazepine-2-carboxamide] |
| ≤ 10 | ≤ 10 | C#Cc1c(F)ccc2cc(O)cc(-c3c(C)c4nc(OC[C@@]56CCCN5C[C@H](F)C6)nc(N5CCC[C@@](C)(O)C5)c4c4cn(C)nc34)c12 [Example 184, (3R)-1-[4-(8-ethynyl-7-fluoro-3-hydroxy-1-naphthyl)-2,5-dimethyl-7-[[(2R,8S)-2-fluoro-1,2,3,5,6,7-hexahydropyrrolizin-8-yl]methoxy]pyrazolo[4,3-f]quinazolin-9-yl]-3-methyl-piperidin-3-ol] |
| ≤ 10 | 100 to 10000 | CCc1c(F)ccc2cc(O)cc(-c3cc4nc(OC[C@@]56CCCN5C[C@H](F)C6)nc(N5CC6CCC(C5)N6CC(C)O)c4c4cn(C)nc34)c12 (stereo partly drawn) [Example 91, 5-ethyl-6-fluoro-4-[7-[[(2R,8S)-2-fluoro-1,2,3,5,6,7-hexahydropyrrolizin-8-yl]methoxy]-9-[3-(2-hydroxypropyl)-3,8-diazabicyclo[3.2.1]octan-8-yl]-2-methyl-pyrazolo[4,3-f]quinazolin-4-yl]naphthalen-2-ol] |
| ≤ 10 | ≤ 10 | CCc1c(F)ccc2cc(O)cc(-c3cc4nc(OC[C@@]56CCCN5C[C@H](F)C6)nc(N5CCC(CO)C5)c4c4cn(C)nc34)c12 (stereo partly drawn) [Example 122, 5-ethyl-6-fluoro-4-[9-[3-(hydroxymethyl)pyrrolidin-1-yl]-2-methyl-7-[[(2R,8S)-2-fluoro-1,2,3,5,6,7-hexahydropyrrolizin-8-yl]methoxy]pyrazolo[4,3-f]quinazolin-4-yl]naphthalen-2-ol] |

Second part, the compound before the results:

| SMILES | IC50 (KRAS G12D) [nM] | IC50 (KRAS WT) [nM] |
| --- | --- | --- |
| CCc1c(F)ccc2cc(O)cc(-c3c(F)c4nc(OCC5(CN6CCC7(CCOCC7)C6)CC5)nc(N5CCOCC(C)(O)C5)c4c4cn(C)nc34)c12 (stereo not drawn) [Example 228, 4-[4-(8-ethyl-7-fluoro-3-hydroxy-1-naphthyl)-5-fluoro-2-methyl-7-[[1-(8-oxa-2-azaspiro[4.5]decan-2-ylmethyl)cyclopropyl]methoxy]pyrazolo[4,3-f]quinazolin-9-yl]-6-methyl-1,4-oxazepan-6-ol] | ≤ 10 | ≤ 10 |
| CCc1c(F)ccc2cc(O)cc(-c3c(F)c4nc(OC[C@@]56CCCN5C[C@H](F)C6)nc(N5CCOC[C@](C)(O)C5)c4c4cn(C)nc34)c12 [Example 110, (6R)-4-[4-(8-ethyl-7-fluoro-3-hydroxy-1-naphthyl)-5-fluoro-2-methyl-7-[[(2R,8S)-2-fluoro-1,2,3,5,6,7-hexahydropyrrolizin-8-yl]methoxy]pyrazolo[4,3-f]quinazolin-9-yl]-6-methyl-1,4-oxazpan-6-ol] | ≤ 10 | ≤ 10 |
| CCc1c(F)ccc2cc(O)cc(-c3cc4nc(OC[C@@]56CCCN5C[C@H](F)C6)nc(N5CCC5C(C)(C)O)c4c4cn(C)nc34)c12 (stereo partly drawn) [Example 135, 5-ethyl-6-fluoro-4-[9-[2-(1-hydroxy-1-methyl-ethyl)azetidin-1-yl]-2-methyl-7-[[(2R,8S)-2-fluoro-1,2,3,5,6,7-hexahydropyrrolizin-8-yl]methoxy]pyrazolo[4,3-f]quinazolin-4-yl]naphthalen-2-ol] | 100 to 10000 | 10 to 100 |
| CCc1c(F)ccc2cc(O)cc(-c3cc4nc(OC[C@@]56CCCN5C[C@H](F)C6)nc(N5CCC(O)C(F)(F)CC5)c4c4cn(C)nc34)c12 (stereo partly drawn) [Example 126, 1-[4-(8-ethyl-7-fluoro-3-hydroxy-1-naphthyl)-2-methyl-7-[[(2R,8S)-2-fluoro-1,2,3,5,6,7-hexahydropyrrolizin-8-yl]methoxy]pyrazolo[4,3-f]quinazolin-9-yl]-5,5-difluoro-azepan-4-ol] | 10 to 100 | 10 to 100 |
| CCc1c(F)ccc2cc(O)cc(-c3c(C)c4nc(OCC5(CN(C)C)CC5)nc(N5CCOCC(C)(O)C5)c4c4cn(C)nc34)c12 (stereo not drawn) [Example 142, 4-[7-[[1-[(dimethylamino)methyl]cyclopropyl]methoxy]-4-(8-ethyl-7-fluoro-3-hydroxy-1-naphthyl)-2,5-dimethyl-pyrazolo[4,3-f]quinazolin-9-yl]-6-methyl-1,4-oxazepan-6-ol] | ≤ 10 | ≤ 10 |
| CCc1c(F)ccc2cc(O)cc(-c3cc4nc(OC[C@@]56CCCN5C[C@H](F)C6)nc(N5CCCn6nccc6C5)c4c4cn(C)nc34)c12 [Example 59, 5-ethyl-6-fluoro-4-[2-methyl-7-[[(2R,8S)-2-fluoro-1,2,3,5,6,7-hexahydropyrrolizin-8-yl]methoxy]-9-(4,6,7,8-tetrahydropyrazolo[1,5-a][1,4]diazepin-5-yl)pyrazolo[4,3-f]quinazolin-4-yl]naphthalen-2-ol] | ≤ 10 | 10 to 100 |
| CCc1c(F)ccc2cc(O)cc(-c3cc4nc(OC[C@@]56CCCN5C[C@H](F)C6)nc(N5CC6CNCC6C5)c4c4cn(C)nc34)c12 (stereo partly drawn) [Example 25, 4-(2,7-diazaspiro[4.4]nonan-2-yl)-6-(8-ethyl-7-fluoro-3-hydroxy-1-naphthyl)-2-[[(2R,8S)-2-fluoro-1,2,3,5,6,7-hexahydropyrrolizin-8-yl]methoxy]-7H-pyrrolo[3,4-d]pyrimidin-5-one] | ≤ 10 | 100 to 10000 |
